From patent publication US20190375708A1 (VenatoRx Pharmaceuticals, Inc., priority 2018, published 2019)

What was measured:
[1] = test system: HBV replication in HepAD38 cells; assay: Anti-HBV replication assay in HepAD38 cells (QPCR of extracellular HBV DNA); type: cell-based, HBV (genotype D, serotype ayw); conditions: Hepatitis B virus, 168 h, 7 days incubation, extracellular HBV DNA by QPCR, read-out: Anti-HBV EC50
Method in brief: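 EC50 values reflect 50% reduction of extracellular HBV DNA, measured by QPCR after 7-day treatment of tetracycline-deprived HepAD38 cells with compound […].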

[2] = In vitro cytotoxicity assay (MTT cell viability) in HepG2 cells; type: cell-based, human; conditions: human
Method in brief: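 Viability measured by MTT conversion, absorbance at 492 nm, as percent of vehicle-treated wells. Compounds spanned 30 μM to 1.0 nM in half-log steps over a 7-day exposure of parental HepG2 cells; CC50 derived by 4-parameter curve fit.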

Structure (SMILES)	EC50 [1] [nM]	CC50 at 7 days [2] [nM]
Cc1cc(NC(=O)c2c(C)c(C(=O)C(=O)NCCn3ccnc3)n(C)c2C)ccc1F [Example 346, 5-(2-((2-(1H-imidazol-1-yl)ethyl)amino)-2-oxoacetyl)-N-(4-fluoro-3-methylphenyl)-1,2,4-trimethyl-1H-pyrrole-3-carboxamide]	< 50	> 30000
Cc1noc(C(NC(=O)C(=O)c2c(C)c(C(=O)Nc3ccc(F)c(C)c3)c(C)n2C)C2CCOCC2)n1 (stereo not shown) [Example 85, N-(4-fluoro-3-methylphenyl)-1,2,4-trimethyl-5-(2-(((3-methyl-1,2,4-oxadiazol-5-yl)(tetrahydro-2H-pyran-4-yl)methyl)amino)-2-oxoacetyl)-1H-pyrrole-3-carboxamide]	< 50	> 30000
Cc1cc(NC(=O)c2c(C)c(C(=O)C(=O)N[C@@H]3CCC[C@@H]3O)n(C)c2C)ccc1F [Example 146, N-(4-fluoro-3-methylphenyl)-5-(2-(((1R,2S)-2-hydroxxycyclopentyl)amino)-2-oxoacetyl)-1,2,4-trimethyl-1H-pyrrole-3-carboxamide]	< 50	> 30000
CCCOC1(CNC(=O)C(=O)c2c(C)c(C(=O)Nc3ccc(F)c(C)c3)c(C)n2C)CCCCC1 [Example 336, N-(4-fluoro-3-methylphenyl)-1,2,4-trimethyl-5-(2-oxo-2-(((1-propoxycyclohexyl)methyl)amino)acetyl)-1H-pyrrole-3-carboxamide]	< 50	5000 to 30000
Cc1cc(NC(=O)c2c(C)c(C(=O)C(=O)NC(C)(C)CO)n(C)c2C)cnc1F [Example 161, N-(6-fluoro-5-methylpyridin-3-yl)-5-(2-((1-hydroxy-2-methylpropan-2-yl)amino)-2-oxoacetyl)-1,2,4-trimethyl-1H-pyrrole-3-carboxamide]	< 50	> 30000
Cc1cc(NC(=O)c2c(C)c(C(=O)C(=O)NC3(c4nc(-c5cnccn5)no4)CCCCC3)n(C)c2C)ccc1F [Example 631, N-(4-fluoro-3-methylphenyl)-1,2,4-trimethyl-5-(2-oxo-2-((1-(3-(pyrazin-2-yl)-1,2,4-oxadiazol-5-yl)cyclohexyl)amino)acetyl)-1H-pyrrole-3-carboxamide]	< 50	> 30000
Cc1c(C(=O)Nc2ccc(F)nc2)c(C)n(C)c1C(=O)C(=O)NC(C)(C)C(F)(F)F [Example 121, N-(6-fluoropyridin-3-yl)-1,2,4-trimethyl-5-(2-oxo-2-((1,1,1-trifluoro-2-methylpropan-2-yl)amino)acetyl)-1H-pyrrole-3-carboxamide]	< 50	> 30000
CC(C)(CO)CNC(=O)C(=O)c1c(Cl)c(C(=O)Nc2ccnc(F)c2)c2n1CCCC2 [Example 526, 2-chloro-N-(2-fluoropyridin-4-yl)-3-(2-((3-hydroxy-2,2-dimethylpropyl)amino)-2-oxoacetyl)-5,6,7,8-tetrahydroindolizine-1-carboxamide]	> 1000	> 30000
Cc1noc([C@H](C)NC(=O)C(=O)c2c(C)c(C(=O)Nc3ccc(F)c(F)c3)c3n2CCCC3)n1 [Example 464, (S)-N-(3,4-difluorophenyl)-2-methyl-3-(2-((1-(3-methyl-1,2,4-oxadiazol-5-yl)ethyl)amino)-2-oxoacetyl)-5,6,7,8-tetrahydroindolizine-1-carboxamide]	50 to 499	> 30000
Cc1c(C(=O)NC2(C)CCCC2)c2n(c1C(=O)C(=O)NC1(CO)CCC1)CCCC2 [Example 745, 3-(2-((1-(hydroxymethyl)cyclobutyl)amino)-2-oxoacetyl)-2-methyl-N-(1-methylcyclopentyl)-5,6,7,8-tetrahdyroindolizine-1-carboxamide]	50 to 499	> 30000
Cc1cc(NC(=O)c2c(Cl)c(C(=O)C(=O)NC(C)(C)C(F)(F)F)n3c2CCCC3)cnc1F [Example 730, 2-chloro-N-(6-fluoro-5-methylpyridin-3-yl)-3-(2-oxo-2-((1,1,1-trifluoro-2-methylpropan-2-yl)amino)acetyl)-5,6,7,8-tetrahydroindolizine-1-carboxamide]	50 to 499	> 30000
Cc1cc(NC(=O)c2c(C)c(C(=O)C(=O)N[C@@H]3CCC[C@H]3O)n(C)c2C)cnc1F [Example 132, N-(6-fluoro-5-methylpyridin-3-yl)-5-(2-(((1R,2R)-2-hydroxycyclopentyl)amino)-2-oxoacetyl)-1,2,4-trimethyl-1H-pyrrole-3-carboxamide]	50 to 499	> 30000
Cc1c(C(=O)Nc2ccc(F)c(F)c2)c(C)n(C)c1C(=O)C(=O)NC1(C(N)=O)CCCC1 [Example 147, 5-(2-((1-carbamoylcyclopentyl)amino)-2-oxoacetyl)-N-(3,4-difluorophenyl)-1,2,4-trimethyl-1H-pyrrole-3-carboxamide]	< 50	> 30000
Cc1c(C(=O)Nc2ccnc(Cl)c2)c(C)n(C)c1C(=O)C(=O)NC(C)(C)CN1CCOCC1 [Example 331, N-(2-chloropyridin-4-yl)-1,2,4-trimethyl-5-(2-((2-methyl-1-morpholinopropan-2-yl)amino)-2-oxoacetyl)-1H-pyrrole-3-carboxamide]	< 50	> 30000
Cc1cc(NC(=O)c2c(C)c(C(=O)C(=O)N[C@H]3CCC[C@@H]3O)n(C)c2C)cnc1F [Example 131, N-(6-fluoro-5-methylpyridin-3-yl)-5-(2-(((1S,2S)-2-hydroxycyclopentyl)amino)-2-oxoacetyl)-1,2,4-trimethyl-1H-pyrrole-3-carboxamide]	50 to 499	> 30000
Cc1noc([C@H](C)NC(=O)C(=O)c2c(Cl)c(C(=O)Nc3ccc(F)c(Cl)c3)c3n2CCC3)n1 [Example 553, (S)-6-chloro-N-(3-chloro-4-fluorophenyl)-5-(2-((1-(3-methyl-1,2,4-oxadiazol-5-yl)ethyl)amino)-2-oxoacetyl)-2,3-dihydro-1H-pyrrolizine-7-carboxamide]	< 50	5000 to 30000
Cc1c(C(=O)Nc2ccc(F)c(F)c2)c2n(c1C(=O)C(=O)NC1(C)CCNCC1)CCCC2 [Example 742]	50 to 499	> 30000
Cc1c(C(=O)Nc2cc(F)c(F)c(F)c2)c(C)n(C)c1C(=O)C(=O)NC1CCC(F)(F)CC1 [Example 324, 5-(2-((4,4-difluorocyclohexyl)amino)-2-oxoacetyl)-1,2,4-trimethyl-N-(3,4,5-trifluorophenyl)-1H-pyrrole-3-carboxamide]	< 50	5000 to 30000
Cc1noc([C@@H](C)NC(=O)C(=O)c2c(Cl)c(C(=O)Nc3ccc(F)c(C)c3)c3n2CCC3)n1 [Example 546, (R)-6-chloro-N-(4-fluoro-3-methylphenyl)-5-(2-((1-(3-methyl-1,2,4-oxadiazol-5-yl)ethyl)amino)-2-oxoacetyl)-2,3-dihydro-1H-pyrrolizine-7-carboxamide]	< 50	> 30000
Cc1noc([C@H](C)NC(=O)C(=O)c2c(Cl)c(C(=O)Nc3ccc(F)c(C)c3)c3n2CCCC3)n1 [Example 494, (S)-2-chloro-N-(4-fluoro-3-methylphenyl)-3-(2-((1-(3-methyl-1,2,4-oxadiazol-5-yl)ethyl)amino)-2-oxoacetyl)-5,6,7,8-tetrahydroindolizinee-1-carboxamide]	< 50	5000 to 30000
Cc1c(C(=O)Nc2ccc(F)c(F)c2)c(Cl)c(C(=O)C(=O)NC2(C)CC(F)(F)C2)n1C [Example 375, 4-chloro-5-(2-((3,3-difluoro-1-methylcyclobutyl)amino)-2-oxoacetyl)-N-(3,4-difluorophenyl)-1,2-dimethyl-1H-pyrrole-3-carboxamide]	< 50	> 30000
CNC(=O)C1(NC(=O)C(=O)c2c(C)c(C(=O)Nc3ccc(F)c(C)c3)c(C)n2C)CC(F)(F)C1 [Example 104, 5-(2-((3,3-difluoro-1-(methylcarbamoyl)cyclobutyl)amino)-2-oxoacetyl)-N-(4-fluoro-3-methylphenyl)-1,2,4-trimethyl-1H-pyrrole-3-carboxamide]	< 50	> 30000
Cc1cc(NC(=O)c2c(C)c(C(=O)C(=O)NCC3(N)CCCCC3)n(C)c2C)ccc1F [Example 337, 5-(2-(((1-aminocyclohexyl)methyl)amino)-2-oxoacetyl)-N-(4-fluoro-3-methylphenyl)-1,2,4-trimethyl-1H-pyrrole-3-carboxamide]	500 to 1000	5000 to 30000
CC[C@@H](CO)NC(=O)C(=O)c1c(C)c(C(=O)Nc2ccc(F)c(C)c2)c(C)n1C [Example 139, (S)-N-(4-fluoro-3-methylphenyl)-5-(2-((1-hydroxybutan-2-yl)amino)-2-oxoacetyl)-1,2,4-trimethyl-1H-pyrrole-3-carboxamide]	< 50	> 30000
COC(=O)[C@H](NC(=O)C(=O)c1c(C)c(C(=O)Nc2ccc(F)c(C)c2)c(C)n1C)[C@@H](C)O [Example 46, methyl (2-(4-((4-fluoro-3-methylphenyl)carbamoyl)-1,3,5-trimethyl-1H-pyrrol-2-yl)-2-oxoacetyl)-D-allothreoninate]	< 50	> 30000
Cc1cc(NC(=O)c2c(C)c(C(=O)C(=O)NC3CCN(c4ccccn4)CC3)n(C)c2C)ccc1F [Example 657, N-(44-fluoro-3-methylphenyl)-1,2,4-trimethyl-5-(2-oxo-2-((1-(pyridin-2-yl)piperidin-4-yl)amino)acetyl)-1H-pyrrole-3-carboxamide]	< 50	5000 to 30000
